Where two headings read alike, the source gives them in different places.

For four compounds, IC50 results are on record in paper PMC10675132, “Novel Coumarin Derivatives as Potential Urease Inhibitors for Kidney Stone Prevention and Antiulcer Therapy: From Synthesis to In Vivo Evaluation” (Pharmaceuticals, 2023).

In the test the target is jack bean urease (Canavalia ensiformis, UniProt P07374). Put plainly: indophenol urease inhibition assay ([…] nm). Type of test: biochemical.
Sequence of jack bean urease (P07374 whole entry, looked up): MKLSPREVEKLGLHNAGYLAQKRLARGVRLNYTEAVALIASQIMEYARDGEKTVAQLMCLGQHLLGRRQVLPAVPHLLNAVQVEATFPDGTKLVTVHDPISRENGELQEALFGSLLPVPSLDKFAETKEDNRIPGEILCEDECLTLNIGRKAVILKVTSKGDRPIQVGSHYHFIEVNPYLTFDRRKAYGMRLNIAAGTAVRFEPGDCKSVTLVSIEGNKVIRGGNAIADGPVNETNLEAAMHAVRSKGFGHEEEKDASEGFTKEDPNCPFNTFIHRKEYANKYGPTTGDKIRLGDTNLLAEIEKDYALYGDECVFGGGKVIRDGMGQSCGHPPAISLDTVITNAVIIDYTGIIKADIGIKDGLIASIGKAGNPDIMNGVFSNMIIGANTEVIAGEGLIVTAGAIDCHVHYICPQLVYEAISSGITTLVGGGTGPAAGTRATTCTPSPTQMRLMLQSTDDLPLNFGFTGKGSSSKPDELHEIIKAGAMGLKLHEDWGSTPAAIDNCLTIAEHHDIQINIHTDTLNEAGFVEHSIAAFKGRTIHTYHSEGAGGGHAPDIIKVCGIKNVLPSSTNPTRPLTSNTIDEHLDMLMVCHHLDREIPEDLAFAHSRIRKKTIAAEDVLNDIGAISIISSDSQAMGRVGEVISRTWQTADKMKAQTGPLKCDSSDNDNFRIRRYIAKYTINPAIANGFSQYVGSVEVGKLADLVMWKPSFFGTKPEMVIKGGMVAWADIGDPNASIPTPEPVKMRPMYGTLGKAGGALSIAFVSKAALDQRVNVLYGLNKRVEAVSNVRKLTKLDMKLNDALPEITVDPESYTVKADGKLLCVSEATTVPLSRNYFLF

For the compound `Cc1ccc(O)c(/C=N/c2cc(=O)oc3ccccc23)c1` [7a, (E)-4-(2-hydroxy-5-methylbenzylideneamino)-2H-chromen-2-one], the half-maximal inhibitory concentration (IC50) was found to be 0.112 µM.
For `NC(N)=S` [Thiourea, reference compound], the IC50 (read-out: IC50 ± SEM) worked out at 0.14 µM.
With `O=c1cc(/N=C/c2cccc([N+](=O)[O-])c2)c2ccccc2o1` [3a, (E)-4-(3-nitrobenzylideneamino)-2H-chromen-2-one], the IC50 was determined as 0.412 µM.
In turn, `O=c1cc(/N=C/c2ccc([N+](=O)[O-])cc2)c2ccccc2o1` [5a, (E)-4-(4-nitrobenzylideneamino)-2H-chromen-2-one] registered an IC50 of 0.322 µM.
